Assays:
[1] = tested on: HeLa; assay: MTT cell viability assay, HeLa cells; format: cell-based; settings: Homo sapiens, 48 h treatment, ± SD, two experiments, 8 replicates
[2] = tested on: MCF-7; assay: MTT cell viability assay, MCF-7 cells; format: cell-based; settings: Homo sapiens, MCF7, 48 h treatment, ± SD, two experiments, 8 replicates
[3] = tested on: Jurkat cells; assay: Flow cytometric annexin-V/propidium iodide apoptosis assay; format: cell-based, human; settings: 5 μM, 36 h
Procedure: Since many clinically used anticancer agents induce apoptosis in cancer cells, we tested the pyranopyridone analogues for their ability to induce apoptosis in Jurkat (model for human T-cell leukemia) cells using the flow cytometric annexin-V/propidium iodide assay (FIG. 1).
FIG. 1 illustrates induction of apoptosis in Jurkat cells treated for 36 h with DMSO control, colchicine (5 μM) and selected pyridone library analogues (5 μM) in the flow cytometric annexin-V/propidium iodide assay. Error bars represent data

[4] = tested on: tubulin; assay: In vitro tubulin polymerization (fluorescence); format: biochemical; settings: relative to 0.05% DMSO control
Source text: To obtain further support for the proposed antitubulin mechanism of action for our heterocycles, we assessed the effect of pyranoquinolones on in vitro tubulin polymerization. In this assay microtubule formation is monitored by the increase in fluorescence intensity of the reaction mixture.
FIG. 4 illustrates the effect of our compounds on in vitro tubulin polymerization.

[5] = tested on: Jurkat cells; assay: DNA laddering assay; format: cell-based, human; settings: 36 h, 1.5% agarose gel
Procedure: Since endonuclease-mediated cleavage of nuclear DNA resulting in formation of oligonucleosomal DNA fragments (180-200 base pairs long) is a hallmark of apoptosis in many cell types, apoptosis was further investigated with the DNA laddering assay (FIG. 2). Jurkat cells were treated with DMSO (lane A), analogues 40 and 41 (lanes B and C), and paclitaxel (lane D) for 36 h. After that the cellular DNA was isolated and electrophoresed in a 1.5% agarose gel. […] No laddering was observed when the cells were treated with DMSO control.
FIG. 2 illustrates DNA laddering in Jurkat cells after 36 h of treatment. (A) DMSO control, (B) 40 at 1.5 μM, (C) 41 at 1.5 μM, (D) paclitaxel at 0.4 μM, and (E) Molecular weight marker (KB).

[6] = tested on: Jurkat cells; assay: Light microscopy of morphological changes; format: cell-based, human; settings: 1 μM, 2 h
Procedure: Morphological changes of cells treated with potent analogues can be visually observed with light microscopy (FIG. 3).
FIG. 3 illustrates light microscopy pictures. Treatment of Jurkat cells with 40 (C) and 41 (D) for 2 hours induces formation of finger-like extensions (black arrows) and shriveling (white arrows). 0.1% DMSO (A) and a known anticancer agent (B) were used as controls. All compounds are used at 1 μM. The scale bar indicates 40 μm.

[7] = tested on: Jurkat cells; assay: Flow cytometric cell cycle analysis (Vybrant Orange staining); format: cell-based, human; settings: for cell cycle arrest: Jurkat cell line, flow cytometric cell cycle analysis; for % relative DNA content G0/G1 / % relative DNA content G2/M / % relative DNA content S: Jurkat, 1 μM, 24 h, ± SD
Source text: Our libraries of compounds exert their antiproliferative properties through inhibition of tubulin dynamics, thereby inducing mitotic arrest and initiating apoptosis in cancer cells. […] This effect is characteristic of antimitotic agents disrupting microtubule assembly.

GI50 [1]	GI50 [2]	Compound	also measured
1.1 ± 0.8 µM	–	CCOc1c(Br)cc(C2C(C#N)=C(N)Oc3cc(C)n(C)c(=O)c32)cc1OC (stereo not shown) [Compound 10, 2-Amino-4-(3-bromo-4-ethoxy-5-methoxyphenyl)-6,7-dimethyl-5-oxo-5,6-dihydro-4H-pyrano[3,2-c]pyridine-3-carbonitrile]	–
0.58 ± 0.14 µM	–	COc1cc(C2C(C#N)=C(N)Oc3cc(C)n(C)c(=O)c32)cc(Br)c1OC (stereo not shown) [Compound 9, 2-Amino-4-(3-bromo-4,5-dimethoxyphenyl)-6,7-dimethyl-5-oxo-5,6-dihydro-4H-pyrano[3,2-c]pyridine-3-carbonitrile]	–
0.41 ± 0.04 µM	0.5 ± 0.1 µM	COc1ccc(C2C(C#N)=C(N)Oc3c2c(=O)n(C)c2ccccc32)cc1Br (stereo not shown) [Compound 43, 2-Amino-4-(3-bromo-4-methoxyphenyl)-6-methyl-5-oxo-5,6-dihydro-4H-pyrano[3,2-c]quinoline-3-carbonitrile]	–
0.077 ± 0.006 µM	0.075 ± 0.007 µM	Cn1c(=O)c2c(c3ccccc31)OC(N)=C(C#N)C2c1cc(Br)cc(Br)c1 (stereo not shown) [Compound 42, 2-Amino-4-(3,5-dibromophenyl)-6-methyl-5-oxo-5,6-dihydro-4H-pyrano[3,2-c]quinoline-3-carbonitrile]	–
> 100 µM	–	Cc1cc2c(c(=O)n1C)C(c1ccc(C(C)C)cc1)C(C#N)=C(N)O2 (stereo not shown) [Compound 17, 2-Amino-4-(4-isopropylphenyl)-6,7-dimethyl-5-oxo-5,6-dihydro-4H-pyrano[3,2-c]pyridine-3-carbonitrile]	induction of apoptosis in Jurkat cells [3]: do not induce apoptosis
18.3 ± 2.9 µM	–	Cc1cc2c(c(=O)n1C)C(c1ccc(Cl)c(Cl)c1)C(C#N)=C(N)O2 (stereo not shown) [Compound 15, 2-Amino-4-(3,4-dichlorophenyl)-6,7-dimethyl-5-oxo-5,6-dihydro-4H-pyrano[3,2-c]pyridine-3-carbonitrile]	induction of apoptosis in Jurkat cells [3]: do not induce apoptosis
–	–	COc1cc([C@@H]2c3cc4c(cc3[C@H](O)[C@H]3COC(=O)[C@H]23)OCO4)cc(OC)c1OC [podophyllotoxin, reference compound]	effect on in vitro tubulin polymerization ([4]; 25 μM): completely suppress tubulin polymerization
0.33 ± 0.06 µM	–	Cc1cc2c(c(=O)n1C)C(c1ccc(N(C)C)c(Br)c1)C(C#N)=C(N)O2 (stereo not shown) [Compound 8, 2-Amino-4-[3-bromo-4-(dimethylamino)phenyl]-6,7-dimethyl-5-oxo-5,6-dihydro-4H-pyrano[3,2-c]pyridine-3-carbonitrile]	–
0.013 ± 0.003 µM	0.015 ± 0.008 µM	Cn1c(=O)c2c(c3ccccc31)OC(N)=C(C#N)C2c1cncc(Br)c1 (stereo not shown) [Compound 3, 2-Amino-4-(5-bromo-3-pyridinyl)-6-methyl-5-oxo-5,6-dihydro-4H-pyrano[3,2-c]quinoline-3-carbonitrile]	–
0.27 ± 0.03 µM	0.81 ± 0.08 µM	Cn1c(=O)c2c(c3ccccc31)OC(N)=C(C#N)C2c1ccc(F)c(Br)c1 (stereo not shown) [Compound 38, 2-Amino-4-(3-bromo-4-fluorophenyl)-6-methyl-5-oxo-5,6-dihydro-4H-pyrano[3,2-c]quinoline-3-carbonitrile]	–
6.5 ± 1.3 µM	–	Cc1cc2c(c(=O)n1C)C(c1cccc(Br)c1)C(C#N)=C(N)O2 (stereo not shown) [Compound 14, 2-Amino-4-(3-bromophenyl)-6,7-dimethyl-5-oxo-5,6-dihydro-4H-pyrano[3,2-c]pyridine-3-carbonitrile]	–
2.7 ± 1.1 µM	–	COc1cc(C2C(C#N)=C(N)Oc3cc(C)n(C)c(=O)c32)cc(Br)c1O (stereo not shown) [Compound 11, 2-Amino-4-(3-bromo-4-hydroxy-5-methoxyphenyl)-6,7-dimethyl-5-oxo-5,6-dihydro-4H-pyrano[3,2-c]pyridine-3-carbonitrile]	–
–	–	CC(=O)O[C@H]1C(=O)[C@@]2(C)[C@H]([C@H](OC(=O)c3ccccc3)[C@]3(O)C[C@H](OC(=O)[C@H](O)[C@@H](NC(=O)c4ccccc4)c4ccccc4)C(C)=C1C3(C)C)[C@]1(OC(C)=O)CO[C@@H]1C[C@@H]2O [paclitaxel, reference compound]	DNA laddering in Jurkat cells ([5]; 0.4 μM): characteristic ladder pattern was obtained; effect on in vitro tubulin polymerization ([4]; 3 μM): promotes microtubule formation
0.63 ± 0.02 µM	0.71 ± 0.12 µM	COc1cc(C2C(C#N)=C(N)Oc3c2c(=O)n(C)c2ccccc32)cc([N+](=O)[O-])c1O (stereo not shown) [Compound 25, 2-Amino-4-(4-hydroxy-3-methoxy-5-nitrophenyl)-6-methyl-5-oxo-5,6-dihydro-4H-pyrano[3,2-c]quinoline-3-carbonitrile]	–
0.24 ± 0.02 µM	1 ± 0.3 µM	COc1cc(C2C(C#N)=C(N)Oc3c2c(=O)n(C)c2ccccc32)cc(OC)c1OC (stereo not shown) [Compound 22, 2-Amino-6-methyl-5-oxo-4-(3,4,5-trimethoxyphenyl)-5,6-dihydro-4H-pyrano[3,2-c]quinoline-3-carbonitrile]	–
0.27 ± 0.02 µM	0.43 ± 0.01 µM	Cn1c(=O)c2c(c3ccccc31)OC(N)=C(C#N)C2c1cc(Br)c(O)c(Br)c1 (stereo not shown) [Compound 39, 2-Amino-4-(3,5-dibromo-4-hydroxyphenyl)-6-methyl-5-oxo-5,6-dihydro-4H-pyrano[3,2-c]quinoline-3-carbonitrile]	–
0.014 ± 0.003 µM	0.38 ± 0.03 µM	COc1cc(C2C(C#N)=C(N)Oc3c2c(=O)n(C)c2ccccc32)cc(Br)c1OC (stereo not shown) [Compound 41, 2-Amino-4-(3-bromo-4,5-dimethoxyphenyl)-6-methyl-5-oxo-5,6-dihydro-4H-pyrano[3,2-c]quinoline-3-carbonitrile]	DNA laddering in Jurkat cells ([5]; 1.5 μM): characteristic ladder pattern was obtained; morphological (phenotypic) changes of Jurkat cells [6]: formation of finger-like extensions and shriveling; cell cycle arrest [7]: pronounced cell cycle arrest in the G2/M phase; % relative DNA content G0/G1 [7]: 20 ± 2%; % relative DNA content G2/M [7]: 49 ± 2%; % relative DNA content S [7]: 28 ± 2%; effect on in vitro tubulin polymerization ([4]; 25 μM): completely suppress tubulin polymerization
0.74 ± 0.03 µM	0.003 ± 0.001 µM	Cn1c(=O)c2c(c3ccccc31)OC(N)=C(C#N)C2c1cccc(Br)c1 (stereo not shown) [Compound 37, 2-Amino-4-(3-bromophenyl)-6-methyl-5-oxo-5,6-dihydro-4H-pyrano[3,2-c]quinoline-3-carbonitrile]	–
0.18 ± 0.02 µM	0.025 ± 0.06 µM	COc1cc(C2C(C#N)=C(N)Oc3c2c(=O)n(C)c2ccccc32)cc(Br)c1OC(C)=O (stereo not shown) [Compound 4, 4-(2-Amino-3-cyano-6-methyl-5-oxo-5,6-dihydro-4H-pyrano[3,2-c]quinolin-4-yl)-2-bromo-6-methoxyphenyl acetate]	–
6.4 ± 1.1 µM	–	Cc1cc2c(c(=O)n1C)C(c1ccc(F)c(Br)c1)C(C#N)=C(N)O2 (stereo not shown) [Compound 13, 2-Amino-4-(3-bromo-4-fluorophenyl)-6,7-dimethyl-5-oxo-5,6-dihydro-4H-pyrano[3,2-c]pyridine-3-carbonitrile]	–
3.5 ± 1.3 µM	–	COc1cc(C2C(C#N)=C(N)Oc3cc(C)n(C)c(=O)c32)cc(Br)c1OC(C)=O (stereo not shown) [Compound 12, 4-(2-Amino-3-cyano-6,7-dimethyl-5-oxo-5,6-dihydro-4H-pyrano[3,2-c]pyridin-4-yl)-2-bromo-6-methoxyphenyl acetate]	–
0.047 ± 0.01 µM	0.39 ± 0.16 µM	COc1cc(C2C(C#N)=C(N)Oc3c2c(=O)n(C)c2ccccc32)cc(Br)c1O (stereo not shown) [Compound 40, 2-Amino-4-(3-bromo-4-hydroxy-5-methoxyphenyl)-6-methyl-5-oxo-5,6-dihydro-4H-pyrano[3,2-c]quinoline-3-carbonitrile]	DNA laddering in Jurkat cells ([5]; 1.5 μM): characteristic ladder pattern was obtained; morphological (phenotypic) changes of Jurkat cells [6]: formation of finger-like extensions and shriveling; cell cycle arrest [7]: pronounced cell cycle arrest in the G2/M phase; % relative DNA content G0/G1 [7]: 27 ± 3%; % relative DNA content G2/M [7]: 47 ± 3%; % relative DNA content S [7]: 22 ± 2%; effect on in vitro tubulin polymerization ([4]; 25 μM): completely suppress tubulin polymerization
22.7 ± 6.4 µM	–	COc1ccc(CCn2c(C)cc3c(c2=O)C(c2cc(OC)c(OC)c(OC)c2)C(C#N)=C(N)O3)cc1OC (stereo not shown) [Compound 20, 2-Amino-6-(3,4-dimethoxyphenethyl)-7-methyl-5-oxo-4-(3,4,5-trimethoxyphenyl)-5,6-dihydro-4H-pyrano[3,2-c]pyridine-3-carbonitrile]	induction of apoptosis in Jurkat cells [3]: do not induce apoptosis
